US8716292B2, “Riminophenazines with 2-(heteroaryl)amino substituents and their anti-microbial activity” (priority 2010, dated 2014)
Values after ≈ are worked out from the molar mass of the structure shown.

What follows are molecules tested on Mycobacterium tuberculosis H37Rv strains (assay: In vitro assay for antimicrobial susceptibility (microplate Alamar blue MIC)). Settings: Mycobacterium tuberculosis, H37RV, in vitro, Mycobacterium tuberculosis H37Rv strains; read-out: MIC (μg/mL) against H37Rv.
Assay type: cell-based
`CC(C)/N=c1\cc2n(-c3ccccc3)c3ccccc3nc-2cc1Nc1cccnc1` [TBI-054, 5-Phenyl-3-(1-methyethyl)imino-2-(3-pyridyl)amino-3,5-dihydrophenazine] gave an MIC of 0.03 µg/mL (≈ 0.074 µM). `CN1CCC(/N=c2\cc3n(-c4ccccc4)c4ccccc4nc-3cc2Nc2cccnc2)CC1` [TBI-055, 5-Phenyl-3-(N-methyl-4-piperidyl)imino-2-(3-pyridyl)amino-3,5-dihydrophenazine] showed an MIC of 0.5 µg/mL (≈ 1.09 µM). For `c1ccc(-n2c3c/c(=N\CCN4CCOCC4)c(Nc4cccnc4)cc-3nc3ccccc32)cc1` [TBI-056, 5-Phenyl-3-(2-morpholinoethyl)imino-2-(3-pyridyl)amino-3,5-dihydrophenazine], the MIC was 0.25 µg/mL (≈ 0.525 µM). `CC(C)CN1CCC(/N=c2\cc3n(-c4ccccc4)c4ccccc4nc-3cc2Nc2cccnc2)CC1` [TBI-057, 5-phenyl-3-(N-isobutyl-4-piperidyl)imino-2-(3-pyridyl)amino-3,5-dihydrophenazine] showed an MIC of 0.125 µg/mL (≈ 0.249 µM). `c1ccc(-n2c3c/c(=N\C4CCOCC4)c(Nc4cccnc4)cc-3nc3ccccc32)cc1` [TBI-058, 5-Phenyl-3-(4-tetrahydropyranyl)imino-2-(3-pyridyl)amino-3,5-dihydrophenazine] gave an MIC of 0.06 µg/mL (≈ 0.134 µM). `COC1CCC(/N=c2\cc3n(-c4ccccc4)c4ccccc4nc-3cc2Nc2cccnc2)CC1` (stereo not drawn) [TBI-059, 5-Phenyl-3-(4-methoxycyclohexyl)imino-2-(3-pyridyl)amino-3,5-dihydrophenazine] gave an MIC of 0.125 µg/mL (≈ 0.263 µM). Molecule `c1ccc(-n2c3c/c(=N\C4CCN(C5CCCC5)CC4)c(Nc4cccnc4)cc-3nc3ccccc32)cc1` [TBI-060, 5-Phenyl-3-(N-cyclopentyl-4-piperidyl)imino-2-(3-pyridyl)amino-3,5-dihydrophenazine] has an MIC of 1 µg/mL (≈ 1.94 µM). For `COc1ncccc1Nc1cc2nc3ccccc3n(-c3ccccc3)c-2c/c1=N\C(C)C` [TBI-061, 5-Phenyl-3-(1-methylethyl)imino-2-(2-methoxy-3-pyridyl)amino-3,5-dihydrophenazine], the MIC was 0.06 µg/mL (≈ 0.138 µM). `COc1ncccc1Nc1cc2nc3ccccc3n(-c3ccccc3)c-2c/c1=N\C1CCN(C)CC1` [TBI-062, 5-Phenyl-3-(N-methyl-4-piperidyl)imino-2-(2-methoxy-3-pyridyl)amino-3,5-dihydrophenazine] showed an MIC of 0.061 µg/mL (≈ 0.124 µM). In the case of `COc1ncccc1Nc1cc2nc3ccccc3n(-c3ccccc3)c-2c/c1=N\C1CCC(OC)CC1` (stereo not drawn) [TBI-063, 5-Phenyl-3-(4-methoxycyclohexyl)imino-2-(2-methoxy-3-pyridyl)amino-3,5-dihydrophenazine], the MIC is reported as 0.06 µg/mL (≈ 0.119 µM). In the case of `COc1ncccc1Nc1cc2nc3ccccc3n(-c3ccccc3)c-2c/c1=N\C1CCN(CC(C)C)CC1` [TBI-064, 5-Phenyl-3-(N-isobutyl-4-piperidyl)imino-2-(2-methoxy-3-pyridyl)amino-3,5-dihydrophenazine], the MIC is reported as 0.057 µg/mL (≈ 0.107 µM). For `COc1ncccc1Nc1cc2nc3ccccc3n(-c3ccccc3)c-2c/c1=N\CCN1CCOCC1` [TBI-065, 5-Phenyl-3-(2-morpholinoethyl)imino-2-(2-methoxy-3-pyridyl)amino-3,5-dihydrophenazine], the MIC was 0.08 µg/mL (≈ 0.158 µM). `COc1ncccc1Nc1cc2nc3ccccc3n(-c3ccccc3)c-2c/c1=N\C1CCOCC1` [TBI-066, 5-Phenyl-3-(4-tetrahydropyranyl)imino-2-(2-methoxy-3-pyridyl)amino-3,5-dihydrophenazine] gave an MIC of 0.026 µg/mL (≈ 0.0544 µM). In the case of `Cc1ccc(Nc2cc3nc4ccccc4n(-c4ccccc4)c-3c/c2=N\C(C)C)cn1` [TBI-067, 5-Phenyl-3-(1-methylethyl)imino-2-(6-methyl-3-pyridyl)amino-3,5-dihydrophenazine], the MIC is reported as 0.048 µg/mL (≈ 0.114 µM). With `Cc1ccc(Nc2cc3nc4ccccc4n(-c4ccccc4)c-3c/c2=N\C2CCN(CC(C)C)CC2)cn1` [TBI-068, 5-Phenyl-3-(N-isobutyl-4-piperidyl)imino-2-(6-methyl-3-pyridyl)amino-3,5-dihydrophenazine] the MIC was 0.156 µg/mL (≈ 0.302 µM). With `Cc1ccc(Nc2cc3nc4ccccc4n(-c4ccccc4)c-3c/c2=N\C2CCN(C)CC2)cn1` [TBI-069, 5-Phenyl-3-(N-methyl-4-piperidyl)imino-2-(6-methyl-3-pyridyl)amino-3,5-dihydrophenazine] the MIC was 0.219 µg/mL (≈ 0.461 µM). For `Cc1ccc(Nc2cc3nc4ccccc4n(-c4ccccc4)c-3c/c2=N\C2CCOCC2)cn1` [TBI-070, 5-Phenyl-3-(4-tetrahydropyranyl)imino-2-(6-methyl-3-pyridyl)amino-3,5-dihydrophenazine], the MIC was 0.08 µg/mL (≈ 0.173 µM). `COC1CCC(/N=c2\cc3n(-c4ccccc4)c4ccccc4nc-3cc2Nc2ccc(C)nc2)CC1` (stereo not drawn) [TBI-072, 5-Phenyl-3-(4-methoxycyclohexyl)imino-2-(6-methyl-pyridyl)amino-3,5-dihydrophenazine] was tested, and the MIC was 0.091 µg/mL (≈ 0.186 µM). `Cc1ncccc1Nc1cc2nc3ccccc3n(-c3ccccc3)c-2c/c1=N\C(C)C` [TBI-073, 5-Phenyl-3-(1-methylethyl)imino-2-(2-methyl-3-pyridyl)amino-3,5-dihydrophenazine] gave an MIC of 0.058 µg/mL (≈ 0.138 µM). With `Cc1ncccc1Nc1cc2nc3ccccc3n(-c3ccccc3)c-2c/c1=N\C1CCOCC1` [TBI-075, 5-Phenyl-3-(4-tetrahydropyranyl)imino-2-(2-methyl-3-pyridyl)amino-3,5-dihydrophenazine] the MIC was 0.328 µg/mL (≈ 0.711 µM). With `COC1CCC(/N=c2\cc3n(-c4ccccc4)c4ccccc4nc-3cc2Nc2cccnc2C)CC1` (stereo not drawn) [TBI-076] the MIC was 0.042 µg/mL (≈ 0.0858 µM). `Cc1ncccc1Nc1cc2nc3ccccc3n(-c3ccccc3)c-2c/c1=N\C1CCCCC1` [TBI-077, 5-Phenyl-3-cyclohexylimino-2-(2-methyl-3-pyridyl)amino-3,5-dihydrophenazine] gave an MIC of 0.016 µg/mL (≈ 0.0348 µM). In the case of `C/N=c1\cc2n(-c3ccccc3)c3ccccc3nc-2cc1Nc1cccnc1C` [TBI-078], the MIC is reported as 0.019 µg/mL (≈ 0.0485 µM). Molecule `COc1ncccc1Nc1cc2nc3ccccc3n(-c3ccccc3)c-2c/c1=N\C1CCCCC1` [TBI-079, 5-Phenyl-3-cyclohexylimino-2-(2-methoxy-3-pyridyl)amino-3,5-dihydrophenazine] has an MIC of 0.068 µg/mL (≈ 0.143 µM). `Cc1ccc(Nc2cc3nc4ccccc4n(-c4ccccc4)c-3c/c2=N\C2CCCCC2)cn1` [TBI-080, 5-Phenyl-3-cyclohexylimino-2-(6-methyl-3-pyridyl)amino-3,5-dihydrophenazine] showed an MIC of 0.243 µg/mL (≈ 0.529 µM). With `Cc1ccc(Nc2cc3nc4ccccc4n(-c4cccc(Cl)c4)c-3c/c2=N\C2CCOCC2)cn1` [TBI-80A, 5-(3-Chlorophenyl)-3-(4-tetrahydropyranyl)imino-2-(6-methyl-3-pyridyl)amino-3,5-dihydrophenazine] the MIC was 0.125 µg/mL (≈ 0.252 µM). `Cc1ccc(Nc2cc3nc4ccccc4n(-c4cccc(Cl)c4)c-3c/c2=N\C2CCCCC2)cn1` [TBI-80B, 5-(3-Chlorophenyl)-3-cyclohexylimino-2-(6-methyl-3-pyridyl)amino-3,5-dihydrophenazine] was tested, and the MIC was 0.125 µg/mL (≈ 0.253 µM). `COCC(COC)/N=c1\cc2n(-c3cccc(Cl)c3)c3ccccc3nc-2cc1Nc1ccc(C)nc1` [TBI-80C, 5-(3-Chlorophenyl)-3-(1,3-dimethoxyisopropyl)imino-2-(6-methyl-3-pyridyl)amino-3,5-dihydrophenazine] was tested, and the MIC was 0.327 µg/mL (≈ 0.636 µM). Molecule `Cc1cncc(Nc2cc3nc4ccccc4n(-c4ccccc4)c-3c/c2=N\C(C)C)c1` [TBI-081, 5-Phenyl-3-(1-methylethyl)imino-2-(5-methyl-3-pyridyl)amino-3,5-dihydrophenazine] has an MIC of 0.117 µg/mL (≈ 0.279 µM). In the case of `Cc1cncc(Nc2cc3nc4ccccc4n(-c4ccccc4)c-3c/c2=N\C2CCCCC2)c1` [TBI-082, 5-Phenyl-3-cyclohexylimino-2-(5-methyl-3-pyridyl)amino-3,5-dihydrophenazine], the MIC is reported as 0.111 µg/mL (≈ 0.242 µM). `Cc1cncc(Nc2cc3nc4ccccc4n(-c4ccccc4)c-3c/c2=N\C2CCOCC2)c1` [TBI-083, 5-Phenyl-3-(4-tetrahydropyranyl)imino-2-(5-methyl-3-pyridyl)amino-3,5-dihydrophenazine] gave an MIC of 0.049 µg/mL (≈ 0.106 µM). `COC1CCC(/N=c2\cc3n(-c4ccccc4)c4ccccc4nc-3cc2Nc2cncc(C)c2)CC1` (stereo not drawn) [TBI-084, 5-Phenyl-3-(4-methoxycyclohexyl)imino-2-(5-methyl-3-pyridyl)amino-3,5-dihydrophenazine] showed an MIC of 0.059 µg/mL (≈ 0.121 µM). For `Cc1cncc(Nc2cc3nc4ccccc4n(-c4ccccc4)c-3c/c2=N\C2CCC(O)CC2)c1` (stereo not drawn) [TBI-085, 5-Phenyl-3-(4-hydroxycyclohexyl)imino-2-(5-methyl-3-pyridyl)amino-3,5-dihydrophenazine], the MIC was 0.5 µg/mL (≈ 1.05 µM). For `Cc1ccc(Nc2cc3nc4ccccc4n(-c4ccccc4)c-3c/c2=N\C2CCC(O)CC2)cn1` (stereo not drawn) [TBI-086], the MIC was 0.5 µg/mL (≈ 1.05 µM). Work on `COc1ncccc1Nc1cc2nc3ccccc3n(-c3ccccc3)c-2c/c1=N\C1CCC(O)CC1` (stereo not drawn) [TBI-087, 5-Phenyl-3-(4-hydroxycyclohexyl)imino-2-(2-methoxy-3-pyridyl)amino-3,5-dihydrophenazine] yielded an MIC of 0.466 µg/mL (≈ 0.948 µM). Molecule `CC(C)/N=c1\cc2n(-c3ccc(Br)cc3)c3ccccc3nc-2cc1Nc1cccnc1` [TBI-088, 5-(4-Bromophenyl)-3-(1-methylethyl)imino-2-(3-pyridyl)amino-3,5-dihydrophenazine] has an MIC of 0.023 µg/mL (≈ 0.0475 µM). `Brc1ccc(-n2c3c/c(=N\C4CCCCC4)c(Nc4cccnc4)cc-3nc3ccccc32)cc1` [TBI-089, 5-(4-Bromophenyl)-3-cyclohexylimino-2-(3-pyridyl)amino-3,5-dihydrophenazine] was tested, and the MIC was 0.021 µg/mL (≈ 0.04 µM). Work on `Brc1ccc(-n2c3c/c(=N\C4CC4)c(Nc4cccnc4)cc-3nc3ccccc32)cc1` [TBI-090, 5-(4-Bromophenyl)-3-cyclopropylimino-2-(3-pyridyl)amino-3,5-dihydrophenazine] yielded an MIC of 0.016 µg/mL (≈ 0.0332 µM). For `Cc1ccc(Nc2cc3nc4ccccc4n(-c4ccc(F)cc4)c-3c/c2=N\C2CCSCC2)cn1` [TBI-90B, 5-(4-Fluorophenyl)-3-(4-tetrahydrothiopyranyl)imino-2-(6-methyl-3-pyridyl)amino-3,5-dihydrophenazine], the MIC was 0.397 µg/mL (≈ 0.801 µM). Molecule `COC1CCC(/N=c2\cc3n(-c4ccc(Br)cc4)c4ccccc4nc-3cc2Nc2cccnc2)CC1` (stereo not drawn) [TBI-091, 5-(4-Bromophenyl)-3-(4-methoxycyclohexyl)imino-2-(3-pyridyl)amino-3,5-dihydrophenazine] has an MIC of 0.062 µg/mL (≈ 0.112 µM). For `Cc1ncccc1Nc1cc2nc3ccccc3n(-c3ccccc3)c-2c/c1=N\C1CCC(O)CC1` (stereo not drawn) [TBI-092], the MIC was 0.5 µg/mL (≈ 1.05 µM). `Brc1ccc(-n2c3c/c(=N\C4CCOCC4)c(Nc4cccnc4)cc-3nc3ccccc32)cc1` [TBI-093, 5-(4-Bromophenyl)-3-(4-tetrahydropyranyl)imino-2-(3-pyridyl)amino-3,5-dihydrophenazine] showed an MIC of 0.163 µg/mL (≈ 0.31 µM).
